In patent US8084486B2, “Substituted arylpyrazoles” (Pfizer Limited, priority 2003, dated 2011):

Test system: Ctenocephalides felis
Experiment: flea membrane feed screen
Set-up: species or system Ctenocephalides felis (cat flea)
Details: at 30 μg/ml
Experimental: The flea membrane feed screen is used to measure the biological activities of the compounds claimed. The assay involves in vitro testing against Ctenocephalides felis conducted according to the following general procedure.
Fleas are cultured in vitro using dog blood. 25-30 adult Ctenocephalides felis (cat flea) were collected and placed in a test chamber (50 ml polystyrene tube with fine nylon mesh sealing the end). Citrated dog blood was prepared by adding aqueous sodium citrate solution (10 ml, 20% w/v, 20 g sodium citrate in 100 ml water) to dog blood (250 ml). Test compounds were dissolved in dimethylsulfoxide to give a working stock solution of 4 mg/ml. The stock solution (12.5 μl) was added to citrated dog blood (5 ml) to give an initial test concentration of 10 μg/ml. For testing at 30 μg/ml, working stock solutions of 12 mg/ml were prepared.
Citrated dog blood containing the test compound (5 ml, 10 μg/ml) was placed into a plastic petri dish lid, which was kept at 37° C. on a heated pad. Parafilm was stretched over the open top to form a tight membrane for the fleas to feed through. The test chamber containing the fleas was placed carefully onto the parafilm membrane and the fleas commenced feeding. […]
The fleas were observed and the percentage of fleas killed recorded. […]

## N#Cc1nn(-c2c(Cl)cc(C(F)(F)F)cc2Cl)c(N)c1C1CC1(Br)Br (stereo not shown) [5-amino-3-cyano-4-(2,2-dibromocyclopropyl)-1-(2,6-dichlorophenyl-4-trifluoromethyl-)pyrazole]
  activity in the ED80 flea screen: inactive
